Earlier results on two molecules are cited in EP3466870B1, “SURFACE-MODIFIED SODIUM HYPOCHLORITE PENTAHYDRATE CRYSTAL, AND METHOD FOR PRODUCING SAME” (Nippon Light Metal Company, Ltd., priority 2016, dated 2017).

Read-outs that look alike come from different tables or passages of the source.

The conditions of this series: in water at 25°C.

Take `O=C(O)O` [carbonic acid]: the pKa (commonly the pH at which an ionisable group is half protonated) reads like this: (first value listed) 6.11; (second value listed) 9.87.

For `O=C(O)C(=O)O` [oxalic acid], the pKa runs as follows: (first value listed) 1.04; (second value listed) 3.82.
